From patent US6828462B2, “Unsaturated 1-amino-alkylcyclohexane NMDA, 5HT3, and neuronal nicotinic receptor antagonists” (Merz Pharma GmbH & Co. KGAA, priority 2001, dated 2004)
pIC50, pKi: −log10 of the molar value. Like-named read-outs stand apart in the source and are kept apart here.

Assays:
[1] = system: maximal electroshock (MES) tonic convulsions; test: Maximal electroshock (MES) test, anticonvulsive activity; type: in vivo, mice; conditions: for ED50: Mus musculus, ip, read-out: MES ED50
Protocol: (§1) NMR female mice (18-28 g) housed 5 per cage were used for the maximal electroshock (MES) and motor impairment tests. All animals were kept with water and food ad libitum under a 12 hour light-dark cycle (light on at 6 a.m.) and at a controlled temperature (20±0.5C). All experiments were performed between 10 a.m. and 5 p.m. Tested agents were injected 30 min. i.p. before the induction of convulsions if not stated otherwise (see below). All compounds were dissolved in 0.9% saline.
(§2) The MES test was performed together with tests for myorelaxant action (traction reflex) and motor coordination (rotarod). For the traction reflex test mice were placed with their forepaws on a horizontal rod and were required to place all 4 paws on the wire within 10 seconds. To test ataxia (motor coordination) mice were placed on an accelerating rotarod and were required to remain on the rod for 1 minute. […] These tests were followed by MES (100 Hz, 0.5 second shock duration, 50 mA shock intensity, 0.9 ms impulse duration, Ugo Basile) applied through corneal electrodes. The presence of tonic convulsions was scored (tonic extension of hind paws with minimum angle to the body of 90). The aim was to obtain ED50s for all parameters scored (anticonvulsive activity and motor side effects) with use of the Litchfield Wilcoxon test for quantal dose responses. Division of the ED50 for side effects (ataxia or myorelaxation) by the ED50 for antagonism of electroshock convulsions was used as a therapeutic index (TI).
(§3) 4-7 doses of antagonists were tested in each of the in vivo tests (5-8 animals per dose) to allow calculation of graded ED50s according to probit analysis (Litchfield and Wilcoxon) with correction for 0% to 100% effects. ED50s are presented with 95% confidence limits (Cl). Pearson product moment correlation analysis (Sigma Stat, Jandel Scientific) was used to compare in vitro potencies and in vivo anticonvulsant activity.

[2] = Traction reflex test, myorelaxant action; type: in vivo, mice; conditions: mouse, in vivo, ip; NMR female mice, i.p., traction reflex; read-out: Myorelaxation ED50
Protocol: as §1, §2, §3

[3] = Accelerating rotarod test, ataxia (motor coordination); type: in vivo, mice; conditions: mouse, in vivo, ip; NMR female mice, accelerating rotarod
Protocol: as §1, §2, §3

[4] = target: NMDA receptor ([3H]-(+)-MK-801 site) (Rattus norvegicus, UniProt P35439); test: [3H]-(+)-MK-801 receptor binding, rat cortex membranes
[5] = system: myorelaxation (traction reflex); test: Traction reflex test, myorelaxant action; type: in vivo, mice; conditions: for Therapeutic index (myorelaxation ED50 / MES ED50): ED50 myorelaxation divided by ED50 MES
Protocol: as §1, §2, §3

ataxia (rotarod) = test: Accelerating rotarod test, ataxia (motor coordination); type: in vivo, mice; conditions: for Therapeutic index (ataxia ED50 / MES ED50): ED50 ataxia divided by ED50 MES
Protocol: as §1, §2, §3

NMDA receptors = target: T1, NMDA receptors (Rattus norvegicus, UniProt P35439); test: Patch clamp, NMDA-induced currents in hippocampal neurones; type: cell-based
T1 construct: Patch clamp recordings were made from these neurones; endogenous in cells; host or cells: primary cultured hippocampal neurones from rat embryos (E20 to E21)

[6] = NMR female mice, i.p. 30 min before convulsions
[7] = read-out: [^3H]MK-801 Ki, rat cortex membranes, [3H]-(+)-MK-801 5 nM, glycine 10 μM, glutamate 10 μM, mean
[8] = Table 1, mean, N=6, read-out: NMDA IC50

Compound	ED50 [1]	ED50 at 30 min [2]	ED50 at 30 min [3]	pKi [4]	ED50 [1, 6]	Therapeutic index (myorelaxation ED50 / MES ED50) [5]	Therapeutic index (ataxia ED50 / MES ED50) (ataxia (rotarod))	MES ED50 [1, 6]	Myorelaxation ED50 ([5]; NMR female mice, i.p., traction reflex)	Ataxia ED50 (ataxia (rotarod); NMR female mice, i.p., accelerating rotarod)	pKi [4, 7]	pIC50 (NMDA receptors; [8])	pIC50 (NMDA receptors)
CC(C)=CCC1(N2CCCCC2)CC(C)(C)CC(C)(C)C1 [MRZ 2015, 1-[3,3,5,5-Tetramethyl-1-(3-methyl-2-butenyl)cyclohexyl]piperidine]	> 50 mg/kg	> 50 mg/kg	> 50 mg/kg	4.08	–	–	–	–	–	–	–	–	–
CC(N)C=C1CC(C)(C)CC(C)(C)C1 (stereo not shown) [MRZ 2006, 1-(3,3,5,5-Tetramethylcyclohexylidene)-2-propanamine]	–	44.6 mg/kg	40.9 mg/kg	5.00	57 mg/kg	0.8	0.7	–	–	–	–	–	–
CC(C)(N)CC1=CC(C)(C)CC(C)(C)C1 [MRZ 2010, 2-Methyl-1-(3,3,5,5-tetramethyl-1-cyclohexen-1-yl)-2-propanamine]	> 50 mg/kg	> 50 mg/kg	> 50 mg/kg	4.35	–	–	–	–	–	–	–	–	–
CC(C)(N)C=C1CC(C)(C)CC(C)(C)C1 [MRZ 2019, 2-Methyl-1-(3,3,5,5-tetramethylcyclohexylidene)-2-propanamine]	> 50 mg/kg	> 50 mg/kg	> 50 mg/kg	4.14	–	–	–	–	–	–	–	–	–
CC1=CC(N)CC(C)(C)C1 (stereo not shown) [MRZ 2/1023, 1-Amino-3,3,5-trimethyl-2-cyclohexene]	–	–	–	–	–	–	–	>50	>50	>50	4.30	–	–
C#CCC1(N2CCCCC2)CC(C)(C)CC(C)(C)C1 [MRZ 2016, 1-[3,3,5,5-Tetramethyl-1-(2-propynyl)cyclohexyl]piperidine]	> 50 mg/kg	> 50 mg/kg	> 50 mg/kg	4.37	–	–	–	–	–	–	–	4.15	–
CC1=CC(C)(C)CC(C)(C)C1N.Cl (stereo not shown) [MRZ 2/657, 1-amino-2,4,4,6,6-pentamethyl-cyclohex-2-en Hydrochloride]	–	> 30 mg/kg	> 30 mg/kg	4.87	> 30 mg/kg	–	–	–	–	–	–	–	–
CC1(C)CC(=CCN)CC(C)(C)C1 [MRZ 2/1021, 2-(3,3,5,5-Tetramethylcyclohexylidene)ethanamine]	–	16.5 mg/kg	23.1 mg/kg	5.67	29.5 mg/kg	0.6	0.8	–	–	–	–	6.48	–
C=CCC1(N2CCCCC2)CC(C)(C)CC(C)(C)C1 [MRZ 2013, 1-(1-Allyl-3,3,5,5-tetramethylcyclohexyl)piperidine]	> 50 mg/kg	> 50 mg/kg	> 50 mg/kg	4.31	–	–	–	–	–	–	–	–	–
C=CCC(CN)C1(C)CC(C)(C)CC(C)(C)C1 (stereo not shown) [MRZ 2017, 2-(1,3,3,5,5-Pentamethylcyclohexyl)-4-pentenylamine]	–	35.6 mg/kg	33.7 mg/kg	5.17	36.9 mg/kg	1.0	0.9	–	–	–	–	5.92	–
CC1(C)CC(=CCCN)CC(C)(C)C1 [MRZ 2018, 3-(3,3,5,5-Tetramethylcyclohexylidene)propanamine]	–	29.4 mg/kg	26.7 mg/kg	4.70	78.5 mg/kg	0.4	0.3	–	–	–	–	4.43	–
C=CC1(NC)CC(C)(C)CC(C)(C)C1 [MRZ 2021, N-Methyl-1-ethenyl-3,3,5,5-tetramethylcyclohexylamine]	13.6 mg/kg	21.4 mg/kg	24.7 mg/kg	5.18	–	1.6	1.8	–	–	–	–	–	4.90
Neramexane Sulphate [MRZ 2000, reference compound]	–	–	–	–	–	–	–	–	–	–	5.77	–	–
CC(N)C1=CC(C)(C)CC(C)(C)C1 (stereo not shown) [MRZ 2/749, 1-(1-Aminoethyl)-3,3,5,5-tetramethylcyclohex-1-ene]	–	38.6 mg/kg	37.1 mg/kg	4.97	26.6 mg/kg	1.5	1.4	–	–	–	–	–	–
C=CC1(CCN)CC(C)(C)CC(C)(C)C1 [MRZ 2014, 2-(1-Vinyl-3,3,5,5-tetramethylcyclohexyl-1)ethylamine]	–	13.9 mg/kg	25.8 mg/kg	5.51	47.8 mg/kg	0.3	0.5	–	–	–	–	7.00	–
CC1(C)C=C(N)CC(C)(C)C1 [MRZ 2/1005, 1-Amino-3,3,5,5-Tetramethyl-1-cyclohexene]	–	35.7 mg/kg	26.8 mg/kg	4.87	20.5 mg/kg	1.7	1.3	–	–	–	–	–	–
CCC1(CC)CC(=CC(C)N)CC(C)(C)C1 (stereo not shown) [MRZ 2008, 1-(3,3-Diethyl-5,5-dimethylcyclohexylidene)-2-propanamine]	–	–	–	5.09	–	–	–	–	–	–	–	5.56	–
C=CCC1(N)CC(C)(C)CC(C)(C)C1 [MRZ 2005, 1-Allyl-3,3,5,5-tetramethylcyclohexanamine]	–	39.8 mg/kg	49.3 mg/kg	5.03	37.3 mg/kg	1.1	1.3	–	–	–	–	4.90	–
C=CCNC1(C)CC(C)(C)CC(C)(C)C1 [MRZ 2026, N-Allyl-1,3,3,5,5-pentamethylcyclohexanamine]	–	26.7 mg/kg	37.6 mg/kg	–	25.4 mg/kg	1.1	1.5	–	–	–	–	4.53	–
CC(CN)=C1CC(C)(C)CC(C)(C)C1 [MRZ 2020, 2-(3,3,5,5-Tetramethylcyclohexylidene)propanamine]	–	34.5 mg/kg	27.6 mg/kg	5.13	26.1 mg/kg	1.3	1.1	–	–	–	–	–	–
C=C[C@@]1(C)C[C@H](C)C[C@@](C)(N)C1 (relative stereo) [MRZ 2009, cis-3-Vinyl-1,3,trans-5-trimethylcyclohexylamine]	–	> 50 mg/kg	> 50 mg/kg	4.65	> 50 mg/kg	–	–	–	–	–	–	4.24	–
CC1=CC(C)(N)CC(C)(C)C1 (stereo not shown) [MRZ 2002, 1,3,5,5-Tetramethyl-2-cyclohexen-1-amine]	26.1 mg/kg	34 mg/kg	53 mg/kg	5.24	–	1.3	2.0	–	–	–	–	–	–
